Source: patent publication US10952415B2, “Prostate cancer cell lines, gene signatures and uses thereof” (priority 2011, dated 2021)

B1: CCR5: printed CCR5, probably CCL5 (R&D System), the CCR5 ligand used as chemoattractant (protein, UniProt P13501 24-91, looked up)
C-C motif chemokine 5: SPYSSDTTPCCFAYIARPLPRAHIKEYFYTSGKCSNPAVVFVTRKNRQVCANPEKKWVREYINSLEMS

What was measured:
[1] = system: PEC lines; assay: Experimental metastasis assay: intracardiac injection of Luc2-Tomato-Red PEC lines, bioluminescence, X-ray and F-18-NaF imaging; format: in vivo, FVB mice
[2] = system: PEC-Src line; assay: Three-dimensional (Matrigel) invasion assay; format: cell-based, murine; conditions: 10 ug/ml osteopontin or 15 ng/ml CCL5 as chemoattractant in upper chamber, three days
Experimental: The three-dimensional invasion assay was performed as previously reported. […] The transwell was incubated at 37° C. overnight to allow the collagen to solidify. 30,000 cells were then seeded on the bottom of the transwell membrane and allowed to attach. Serum-free growth medium was placed into the bottom chamber, while 10 ug/ml osteopontin (R&D System), or 15 ng/ml CCL5 (R&D System), or 10% FBS was used as a chemo attractant in the medium of the upper chamber. The cells were then chemo attracted across the filter through the collagen above for three days. Cells were fixed in 4% formaldehyde, permeabilized with 0.2% Triton-X in PBS and then stained with […] propidium iodide (PI) for 2 h. Fluorescence was analyzed by confocal z sections (one section every […]) at 10× magnification from the bottom of the filter using a Zeiss LSM 510 Meta inverted confocal microscope at the Kimmel Cancer Center Bioimaging Facilit.
For the comparison to tissue, the in vivo tumor gene expression in the oncogene transformed PEC was compared with the expression in vivo in the dorsolateral ventral prostate of mice with the same strain. […] Upregulation of the receptor ligands CCL2, CCL7, and CCL8 was observed (2- to 3-fold). CCL7, CCL8 and CCL5 are ligands for CCR5, CCL8 and CCL5 for CCR1 (FIG. 16H). […]

[3] = Maraviroc 8 mg/kg oral vs control, FVB mice, 2 weeks after intracardiac injection of PEC lines, N=8 per group

Molecule	reduction of bony metastasis (lower limb bony mass) [1, 3]	reduction of total body metastatic burden (photon flux) [1, 3]	effect on metastasis (result in words) ([1]; daily oral CCR5 antagonist, bony / spinal osteolytic metastasis in mice)	reduction of spine metastasis ([1]; daily oral treatment, F-18-NaF imaging correlated with X-ray, FVB mice)	Matrigel invasion of the PEC-Src line (result in words) [2]
Maraviroc	> 50%	> 50%	reduction in metastasis	> 90%	
osteopontin [OPN]					enhanced PEC invasiveness into matrigel
B1					enhanced PEC invasiveness into matrigel
